According to patent publication US20240199676A1, “ANTIVIRAL COMPOUNDS AND METHODS OF MAKING AND USING THE SAME” (Gilead Sciences, Inc., priority 2022, published 2024):

Assays:
[1] = GI S9 stability (Ex. Z), rat intestinal S9; type: in vitro ADME; details: pooled intestinal S9 fractions; rat intestinal S9, 1.0 mg/mL protein, 2 μM substrate, pH 7.4; read-out: GIS9 Rat T½ (per Ex. Z)
Protocol: (§1) Example Z: GI S9 stability data:
(§2) Stock solutions of test compounds in dimethyl sulfoxide (DMSO) having a final concentration of 10 mM were prepared and used in all experiments. Sekisui XenoTech (Kansas City, KS) provided pooled intestinal S9 fractions. All other chemicals were purchased from Sigma-Aldrich (St. Louis, MO) or VWR (West Chester, PA). Internal Standard/Quench (IS/Q) used to stop reactions was 100 nM labetalol in (by volume) methanol (10%) and acetonitrile (90%).
(§3) Stability in Intestinal S9 Fractions: Duplicate aliquots of test compound or positive control substrate were added to S9 stock diluted with phosphate buffered saline (137 mM NaCl, 2.7 mM KCl, 10 mM phosphate buffer), pH 7.4, to obtain a protein concentration of 1.0 mg/mL. The metabolic reactions were initiated by the addition of the substrates to the S9 reaction mixture to a final concentration of 2 μM. At 0, 10, 20, 30, 60 and 120 min, 25 μL aliquots of the reaction mixture were transferred to plates containing 225 μl of IS/Q solution. After quenching, the plates were centrifuged at 3000×g for 30 minutes. 150 μL aliquots of each supernatant were dried down then reconstituted with 300 μL water. Aliquots (10 μL) of the prepared samples were analyzed on a Thermo Q-Exactive mass spectrometer as described below.
(§4) Liquid Chromatography—Mass Spectrometry: Quantification of test compounds and control substrate was performed by analyte/internal standard peak area ratio (PAR) values measured on a Thermo Q-Exactive mass spectrometer coupled to a Dionex UltiMate 3000 HPLC with a Leap Technologies HTC PAL autosampler. The column used for analysis was a Waters Acquity BEH C18 (1.7 μm particle size, 2.1×50 mm). Mobile phase A consisted of 0.1% (v/v) formic acid in water. Mobile phase B consisted of 0.1% (v/v) formic acid in acetonitrile. Elution of analytes was achieved by a series of linear gradients varying the proportions of A and B. The mass spectrometer was calibrated on a weekly basis and mass tolerance of 5 ppm was used.
(§5) Metabolic stabilities in S9 fractions were determined by measuring the rates of disappearance of test compound and positive control substrate.
(§6) Data (% of substrate remaining) were plotted on a semi-log scale and fitted using an exponential decline model:
(§7) Where Ct—% of substrate remaining at time=t; C0—% of substrate remaining at time=0; t—time; T½—half-life The Half-life (T½) is determined by the following equation: […]
(§8) Assuming a first-order reaction, the slope (k) is extrapolated from the aforementioned plotted data.

[2] = GI S9 stability (Ex. Z), human intestinal S9; type: in vitro ADME; details: pooled intestinal S9 fractions; human intestinal S9, 1.0 mg/mL protein, 2 μM substrate, pH 7.4; read-out: GIS9 Human T½ (per Ex. Z)
Protocol: as §1, §2, §3, §4, §5, §6, §7, §8

[3] = tested on: Human Rhinovirus 14 (HRV14) in H1-HeLa cells; assay: H1-HeLa HRV-CTG 384-well Assay (Ex. Y), HRV14; type: cell-based; details: Rhinovirus B, 96 h; H1-HeLa cells, HRV14 MOI 1.0, 4 days, Celltiter-Glo; read-out: EC50 H1-HeLa_HRV14_HRV-CTG 384-well Assay (per Ex Y)
Text: (§9) Example Y: H1-HeLa HRV-CTG 384-well Assay
(§10) H1-Hela cell line (ATCC, Manassas, VA, Cat #CRL-1958) was maintained in Dulbecco's […] (DMEM) (Corning, New York, NY, Cat #15-018CM) supplemented with 10% fetal bovine serum (FBS) (Hyclone, Logan, UT, Cat #SH30071-03), and 1× Penicillin-Streptomycin-L-Glutamine (Corning, New York, NY, Cat #30-009-CI). Cells were passaged 2 times per week to maintain sub-confluent densities and were used for experiments at passage 5-30. The Human Rhinovirus 1B (HRV1B) (ATCC, Manassas, VA, Cat #VR-1645) , Human Rhinovirus 14 (HRV14) (ATCC, Manassas, VA, Cat #VR-284), and Human Rhinovirus 16 (HRV16) (ATCC, Manassas, VA, Cat #BR-283) was obtained through ATCC. Viral infection was monitored by determining viability of H1-HeLa cells as described below.
(§11) Test molecules are prepared in 100% DMSO in 384-well polypropylene plates (Greiner, Monroe, NC, Cat #784201) with 8 compounds per plate in grouped replicates of 4 at 10 serially diluted concentrations (1:3). The serially diluted compounds were transferred to low dead volume Echo plates (Labcyte, Sunnyvale, CA, Cat #LP-0200).
(§12) The test compounds were spotted to 384-well assay plates (Greiner, Monroe, NC, Cat#781091) at 200 nL per well using an Echo acoustic dispenser (Labcyte, Sunnyvale, CA). H1-HeLa cells were harvested and suspended in DMEM (supplemented with 2% FBS and 1× Penicillin-Streptomycin-L-Glutamine) and seeded to the pre-spotted assay plates at 5,000 cells per well in 30 μL. HRV1B, HRV14, and HRV16 was diluted in DMEM (supplemented with 2% FBS and 1× Penicillin-Streptomycin-L-Glutamine) at 97.1 million Infectious Units (IU) per mL, 151 million IU per mL and 221 million IU per mL respectively. 10 μL of virus per well was added to the assay plates containing cells and compounds, for an MOI of 0.5, 1.0, and 0.25 respectively. The assay plates were incubated for 4 days at 37° C. and 5% CO2. At the end of incubation, Celltiter-Glo (Promega, Madison, WI, Cat #(Ga7573) was prepared. The assay plates and Celltiter-Glo reagent were equilibrated to room temperature for at least 15 minutes. 40 μL per well of Celltiter-Glo reagent was added and the plates were incubated at room temperature for 15 minutes before reading the luminescence signal on an EnVision multimode plate reader (Perkin Elmer, Waltham, MA). Rupintrivir was used as positive control and DMSO was used as negative control. Values were normalized to the positive and negative controls (as 0% and 100% replication, respectively) and data was fitted using non-linear regression analysis by Gilead's dose response tool. The EC50 value for each compound was defined as the concentration reducing viral replication by 50%.

[4] = tested on: Human Rhinovirus 16 (HRV16) in H1-HeLa cells; assay: H1-HeLa HRV-CTG 384-well Assay (Ex. Y), HRV16; type: cell-based; details: Rhinovirus A, 96 h; H1-HeLa cells, HRV16 MOI 0.25, 4 days, Celltiter-Glo; read-out: EC50 H1-HeLa_HRV16_HRV-CTG 384-well Assay (per Ex. Y)
Text: as §9, §10, §11, §12

| SMILES | half-life at 2 μM [1] [min] | half-life at 2 μM [2] [min] | EC50 [3] [µM] | EC50 [4] [µM] |
| --- | --- | --- | --- | --- |
| CC(C)(C)CCC(=O)OC[C@@]1(C#N)O[C@@H](c2ccc3c(N)ncnn23)[C@H](O)[C@@H]1O [Compound 36, ((2R,3S,4R,5S)-5-(4-aminopyrrolo[2,1-f][1,2,4]triazin-7-yl)-2-cyano-3,4-dihydroxytetrahydrofuran-2-yl)methyl 4,4-dimethylpentanoate] | 3 | 11 | 6.51 | 8.03 |
| CCCC(=O)OC[C@@]1(C#N)O[C@@H](c2ccc3c(N)ncnn23)[C@H](O)[C@@H]1O [Compound 6, ((2R,3S,4R,5S)-5-(4-aminopyrrolo[2,1-f][1,2,4]triazin-7-yl)-2-cyano-3,4-dihydroxytetrahydrofuran-2-yl)methyl butyrate] | 4 | 8 | 7.86 | 8.23 |
| CC(=O)OC[C@@]1(C#N)O[C@@H](c2ccc3c(N)ncnn23)[C@H](OC(C)=O)[C@@H]1OC(C)=O [Compound 28, (2R,3S,4S,5S)-2-(acetoxymethyl)-5-(4-aminopyrrolo[2,1-f][1,2,4]triazin-7-yl)-2-cyanotetrahydrofuran-3,4-diyl diacetate] | 5 | 5 | 19.8 | 23.9 |
| N#C[C@]1(COC(=O)C2CCCC2)O[C@@H](c2ccc3c(N)ncnn23)[C@H](O)[C@@H]1O [Compound 18, ((2R,3S,4R,5S)-5-(4-aminopyrrolo[2,1-f][1,2,4]triazin-7-yl)-2-cyano-3,4-dihydroxytetrahydrofuran-2-yl)methyl cyclopentanecarboxylate] | 3 | 8 | 6.93 | 8.01 |
| CC1(CC(=O)OC[C@@]2(C#N)O[C@@H](c3ccc4c(N)ncnn34)[C@H](O)[C@@H]2O)CCC1 [Compound 33, ((2R,3S,4R,5S)-5-(4-aminopyrrolo[2,1-f][1,2,4]triazin-7-yl)-2-cyano-3,4-dihydroxytetrahydrofuran-2-yl)methyl 2-(1-methylcyclobutyl)acetate] | 31 | 154 | 20.8 | 50 |
| N#C[C@]1(COC(=O)c2ccccc2)O[C@@H](c2ccc3c(N)ncnn23)[C@H](O)[C@@H]1O [Compound 2, ((2R,3S,4R,5S)-5-(4-aminopyrrolo[2,1-f][1,2,4]triazin-7-yl)-2-cyano-3,4-dihydroxytetrahydrofuran-2-yl)methyl benzoate] | 8 | 27 | 23.9 | 28.3 |
| CC1(C)CC(C(=O)OC[C@@]2(C#N)O[C@@H](c3ccc4c(N)ncnn34)[C@H](O)[C@@H]2O)C1 [Compound 17, ((2R,3S,4R,5S)-5-(4-aminopyrrolo[2,1-f][1,2,4]triazin-7-yl)-2-cyano-3,4-dihydroxytetrahydrofuran-2-yl)methyl 3,3-dimethylcyclobutane-1-carboxylate] | 3 | 13 | 7.83 | 7.57 |
| CC(C)(C)C(=O)OC[C@@]1(C#N)O[C@@H](c2ccc3c(N)ncnn23)[C@H](O)[C@@H]1O [Compound 10, ((2R,3S,4R,5S)-5-(4-aminopyrrolo[2,1-f][1,2,4]triazin-7-yl)-2-cyano-3,4-dihydroxytetrahydrofuran-2-yl)methyl pivalate] | 53 | 124 | 10.9 | 14.3 |
| Cc1ccc(C(=O)OC[C@@]2(C#N)O[C@@H](c3ccc4c(N)ncnn34)[C@H](O)[C@@H]2O)cc1 [Compound 14, ((2R,3S,4R,5S)-5-(4-aminopyrrolo[2,1-f][1,2,4]triazin-7-yl)-2-cyano-3,4-dihydroxytetrahydrofuran-2-yl)methyl 4-methylbenzoate] | 6 | 25 | 8.17 | 23.8 |
| N#C[C@]1(COC(=O)C2CC2)O[C@@H](c2ccc3c(N)ncnn23)[C@H](O)[C@@H]1O [Compound 7, ((2R,3S,4R,5S)-5-(4-aminopyrrolo[2,1-f][1,2,4]triazin-7-yl)-2-cyano-3,4-dihydroxytetrahydrofuran-2-yl)methyl cyclopropanecarboxylate] | 26 | 292 | 27.1 | 30.7 |
| N#C[C@]1(COC(=O)C2CC3(CCC3)C2)O[C@@H](c2ccc3c(N)ncnn23)[C@H](O)[C@@H]1O [Compound 32, ((2R,3S,4R,5S)-5-(4-aminopyrrolo[2,1-f][1,2,4]triazin-7-yl)-2-cyano-3,4-dihydroxytetrahydrofuran-2-yl)methyl spiro[3.3]heptane-2-carboxylate] | 2 | 12 | 5.14 | 4.56 |
| CCC(CC)C(=O)OC[C@@]1(C#N)O[C@@H](c2ccc3c(N)ncnn23)[C@H](O)[C@@H]1O [Compound 9, ((2R,3S,4R,5S)-5-(4-aminopyrrolo[2,1-f][1,2,4]triazin-7-yl)-2-cyano-3,4-dihydroxytetrahydrofuran-2-yl)methyl 2-ethylbutanoate] | 23 | 55 | 15.5 | 35.1 |
| CC(C)(C)CC(=O)OC[C@@]1(C#N)O[C@@H](c2ccc3c(N)ncnn23)[C@H](O)[C@@H]1O [Compound 13, ((2R,3S,4R,5S)-5-(4-aminopyrrolo[2,1-f][1,2,4]triazin-7-yl)-2-cyano-3,4-dihydroxytetrahydrofuran-2-yl)methyl 3,3-dimethylbutanoate] | 185 | 789 | 50 | 50 |
